Data taken from patent publication US6737383B1, “Herbicidal oxadiazolidines” (priority 1999, dated 2004).

Key:
large crabgrass [1] = assay: Test C postemergence large crabgrass; format: in vivo, Digitaria sanguinalis; settings: 0 to 100 scale, 0 no effect, 100 complete control
Experimental: (§1) Compounds evaluated in this test were formulated in a non-phytotoxic solvent mixture which included a surfactant and applied to plants that were grown for various periods of time before treatment (postemergence application). A mixture of sandy loam soil and greenhouse potting mix in a 60:40 ratio was used for the postemergence test.
(§2) Plantings of these crops and weed species were adjusted to produce plants of appropriate size for the postemergence test. All plant species were grown using normal greenhouse practices. Crop and weed species include arrowleaf sida (Sida rhombifolia), barnyardgrass (Echinochloa crus-galli), cocklebur (Xanthium strumarium), common ragweed (Ambrosia elatior), corn (Zea mays), cotton (Gossypium hirsutum), eastern black nightshade (Solanum ptycanthum), fall panicum (Panicum dichotomiflorum), field bindweed (Convolvulus arvensis), giant foxtail (Setaria faberii), hairy beggarticks (Bidens pilosa), ivyleaf morningglory (Ipomoea hederacea), johnsongrass (Sorghum halepense), ladysthumb smartweed (Polygonum persicaria), lambsquarters (Chenopodium album), large crabgrass (Digitaria sanguinalis), purple nutsedge (Cyperus rotundus), redroot pigweed (Amaranthus retroflexus), soybean (Glycine max), surinam grass (Brachiaria decumbens), velvetleaf (Abutilon theophrasti) and wild poinsettia (Euphorbia heterophylla).
(§3) Treated plants and untreated controls were maintained in a greenhouse for approximately 14, to 21 days, after which all treated plants were compared to untreated controls and visually evaluated. Plant response ratings, summarized in Table C, were based upon a 0 to 100 scale where 0 was no effect and 100 was complete control. A dash response (−) means no test result.

rape = assay: Test E rape; format: in vivo, Brassica napus; settings: Preemergence; for Rape plant response rating (0 to 100 scale): Rate 250 g/ha
blackgrass = assay: Test E blackgrass; format: in vivo, Alopecurus myosuroides; settings: Postemergence; for Plant response rating, Blackgrass: 0 to 100 scale; for Blackgrass plant response rating: Rate 250 g/ha, 0 to 100 scale where 0 is no effect and 100 is complete control
Experimental: as §1, with “in the 1- to 4-leaf stage” for “grown for various periods of time before treatment”
(§4) Plantings of these crops and weed species were adjusted to produce plants of appropriate size for the postemergence test. All plant species were grown using normal greenhouse practices. Crop and weed species include annual bluegrass (Poa annua), blackgrass (Alopecurus myosuroides), black nightshade (Solanum nigra), chickweed (Stellaria media), common poppy (Papaver rhoeas), deadnettle (Lamium amplexicaule), downy brome (Bromus tectorum), field violet (Viola arvensis), galium (Galium aparine), green foxtail (Setaria viridis), Italian ryegrass (Lolium multiflorum), jointed goatgrass (Aegilops cylindrica), kochia (Kochia scoparia), lambsquarters (Chenopodium album), littleseed canarygrass (Phalaris minor), rape (Brassica napus), redroot pigweed (Amaranthus retroflexus), Russian thistle (Salsola kali), scentless chamomile (Matricaria inodora), spring barley (Hordeum vulgare), sugar beet (Beta vulgaris), sunflower (Helianthus annuus), ivyleaf speedwell (Veronica hederaefolia), spring wheat (Triticum aestivum), winter wheat (Triticum aestivum), wild buckwheat (Polygonum convolvulus), wild mustard (Sinapis arvensis), wild oat (Avena fatua), windgrass (Apera spica-venti) and winter barley (Hordeum vulgare).
(§5) Treated plants and untreated controls were maintained in a greenhouse for approximately 21 to 28 days, after which all treated plants were compared to untreated controls and visually evaluated. […] A dash response (-) means no test result.

common poppy = assay: Test E common poppy; format: in vivo, Papaver rhoeas; settings: Postemergence; for Common poppy plant response rating: Rate 250 g/ha, 0 to 100 scale where 0 is no effect and 100 is complete control
How it was run: (§6)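 Greenhouse test: compounds in non-phytotoxic solvent with surfactant; for postemergence, sprayed on plants at 1- to 4-leaf stage grown in 60:40 sandy loam/potting mix. Injury rated visually against untreated controls after about 21 to 28 days.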

common pursiane = assay: Test D common purslane; format: in vivo, Portulaca oleracea; settings: Postemergence, 0 to 100 scale
surinam grass = assay: Test D surinam grass; format: in vivo, Brachiaria decumbens; settings: Postemergence, 0 to 100 scale
winter barley = assay: Test E winter barley; format: in vivo, Hordeum vulgare; settings: Postemergence; for Plant response rating, Barley (winter): 0 to 100 scale; for Barley (winter) plant response rating: Rate 250 g/ha, 0 to 100 scale where 0 is no effect and 100 is complete control
How it was run: as §6

jointed goatgrass = assay: Test E jointed goatgrass; format: in vivo, Aegilops cylindrica; settings: Preemergence; for Jointed goatgra plant response rating (0 to 100 scale): Rate 250 g/ha
ivyleaf morningglory = assay: Test C postemergence ivyleaf morningglory; format: in vivo, Ipomoea hederacea; settings: 0 to 100 scale, 0 no effect, 100 complete control
Experimental: as §1, §2, §3

large crabgrass [2] = assay: Test D large crabgrass; format: in vivo, Digitaria sanguinalis; settings: Postemergence, 0 to 100 scale
goosegrass = assay: Test D goosegrass; format: in vivo, Eleusine indica; settings: Postemergence, 0 to 100 scale
purple nutsedge = assay: Test C postemergence purple nutsedge; format: in vivo, Cyperus rotundus; settings: 0 to 100 scale, 0 no effect, 100 complete control
Experimental: as §1, §2, §3

dallisgrass = assay: Test D dallisgrass; format: in vivo, Paspalum dilatatum; settings: Postemergence, 0 to 100 scale
chickweed = assay: Test E chickweed; format: in vivo, Stellaria media; settings: Postemergence; for Plant response rating, Chickweed: 0 to 100 scale; for Chickweed plant response rating: Rate 250 g/ha, 0 to 100 scale where 0 is no effect and 100 is complete control
Experimental: as §1, with “in the 1- to 4-leaf stage” for “grown for various periods of time before treatment”
as §4, §5

Green foxtail = assay: Test D green foxtail; format: in vivo; settings: Postemergence, 0 to 100 scale, 0 no injury, 100 complete control
hairy beggarticks = assay: Test C postemergence hairy beggarticks; format: in vivo, Bidens pilosa; settings: 0 to 100 scale, 0 no effect, 100 complete control
Experimental: as §1, §2, §3

[3] = Rate 125 g/ha, 0 to 100 scale (0 no effect, 100 complete control)
[4] = Rate 500 g/ha, 0 to 100 scale where 0 is no effect and 100 is complete control
[5] = Rate 125 g/ha, 0 is no effect, 100 is complete control
[6] = Rate 500 g/ha, 0 is no effect, 100 is complete control
[7] = Rate 16 g/ha, 0 no injury, 100 complete control
[8] = Rate 32 g/ha, 0 no injury, 100 complete control
[9] = Rate 64 g/ha, 0 no injury, 100 complete control
[10] = Rate 125 g/ha, 0 no injury, 100 complete control

SMILES: CC(C)N(C(=O)n1oc(=O)n(C2CC2)c1=O)c1ccc(F)cc1 [Compound 242]
- Plant response rating, Large crabgrass (large crabgrass [1]; Rate 140 g/ha): 10
- Plant response rating, Large crabgrass (large crabgrass [1]; Rate 280 g/ha): 30
- Plant response rating, Large crabgrass (large crabgrass [1]; Rate 560 g/ha): 85
- Plant response rating, Large crabgrass (large crabgrass [1]; Rate 1120 g/ha): 85
- Plant response rating, Rape (rape; [3]): 50
- Rape plant response rating (0 to 100 scale) (rape): 60
- Plant response rating, Rape (rape; [4]): 85
- Plant response rating, Blackgrass (blackgrass; Rate 62 g/ha): 60
- Plant response rating, Blackgrass (blackgrass; [5]): 0
- Blackgrass plant response rating (blackgrass): 10
- Plant response rating, Blackgrass (blackgrass; [6]): 50
- Plant response rating, Common poppy (common poppy; Rate 62 g/ha, 0 to 100 scale): 55
- Plant response rating, Common poppy (common poppy; Rate 125 g/ha, 0 to 100 scale, 0 is no effect, 100 is complete control): 40
- Common poppy plant response rating (common poppy): 20
- Plant response rating, Common poppy (common poppy; Rate 500 g/ha, 0 to 100 scale, 0 is no effect, 100 is complete control): 0
- Plant response rating, C. purslane (common pursiane; [7]): 0
- Plant response rating, C. purslane (common pursiane; [8]): 0
- Plant response rating, C. purslane (common pursiane; [9]): 0
- Plant response rating, C. purslane (common pursiane; [10]): 0
- Plant response rating, C. purslane (common pursiane; Rate 250 g/ha): 0
- Plant response rating, Surinam grass (surinam grass; [7]): 0
- Plant response rating, Surinam grass (surinam grass; [8]): 30
- Surinam grass plant response rating (surinam grass; [9]): 100
- Surinam grass plant response rating (surinam grass; [10]): 100
- Plant response rating, Surinam grass (surinam grass; Rate 250 g/ha): 100
- Plant response rating, Barley (winter) (winter barley; Rate 62 g/ha): 20
- Plant response rating, Barley (winter) (winter barley; [5]): 0
- Barley (winter) plant response rating (winter barley): 10
- Plant response rating, Barley (winter) (winter barley; [6]): 20
- Plant response rating, Jointed goatgra (jointed goatgrass; [3]): 65
- Jointed goatgra plant response rating (0 to 100 scale) (jointed goatgrass): 80
- Plant response rating, Jointed goatgra (jointed goatgrass; [4]): 90
- Plant response rating I. morningglory (ivyleaf morningglory; Rate 140 g/ha): 0
- Plant response rating I. morningglory (ivyleaf morningglory; Rate 280 g/ha): 0
- Plant response rating I. morningglory (ivyleaf morningglory; Rate 560 g/ha): 0
- Plant response rating I. morningglory (ivyleaf morningglory; Rate 1120 g/ha): 0
- Plant response rating, Large crabgrass (large crabgrass [2]; [7]): 0
- Plant response rating, Large crabgrass (large crabgrass [2]; [8]): 100
- Plant response rating, Large crabgrass (large crabgrass [2]; [9]): 100
- Plant response rating, Large crabgrass (large crabgrass [2]; [10]): 100
- Plant response rating, Large crabgrass (large crabgrass [2]; Rate 250 g/ha): 100
- Plant response rating, Goosegrass (goosegrass; [7]): 90
- Plant response rating, Goosegrass (goosegrass; [8]): 100
- Plant response rating, Goosegrass (goosegrass; [9]): 100
- Plant response rating, Goosegrass (goosegrass; [10]): 100
- Plant response rating, Goosegrass (goosegrass; Rate 250 g/ha): 100
- Plant response rating, Purple nutsedge (purple nutsedge; Rate 140 g/ha): 0
- Plant response rating, Purple nutsedge (purple nutsedge; Rate 280 g/ha): 0
- Plant response rating, Purple nutsedge (purple nutsedge; Rate 560 g/ha): 10
- Plant response rating, Purple nutsedge (purple nutsedge; Rate 1120 g/ha): 80
- Plant response rating, Dallisgrass (dallisgrass; [7]): 60
- Plant response rating, Dallisgrass (dallisgrass; [8]): 90
- Plant response rating, Dallisgrass (dallisgrass; [9]): 90
- Plant response rating, Dallisgrass (dallisgrass; [10]): 100
- Plant response rating, Dallisgrass (dallisgrass; Rate 250 g/ha): 100
- Plant response rating, Chickweed (chickweed; Rate 62 g/ha): 0
- Plant response rating, Chickweed (chickweed; [5]): 30
- Chickweed plant response rating (chickweed): 0
- Plant response rating, Chickweed (chickweed; [6]): 50
- Plant response rating, Green foxtail (Green foxtail; Rate 16 g/ha): 30
- Plant response rating, Green foxtail (Green foxtail; Rate 32 g/ha): 100
- Plant response rating H. beggarticks (hairy beggarticks; Rate 1120 g/ha): 90

SMILES: CC(C)N(C(=O)n1oc(=O)n(C)c1=O)c1ccc(F)cc1 [Compound 138]
- Plant response rating, Large crabgrass (large crabgrass [1]; Rate 140 g/ha): 0
- Plant response rating, Large crabgrass (large crabgrass [1]; Rate 280 g/ha): 10
- Plant response rating, Large crabgrass (large crabgrass [1]; Rate 560 g/ha): 85
- Plant response rating, Large crabgrass (large crabgrass [1]; Rate 1120 g/ha): 85
- Plant response rating, Rape (rape; [3]): 30
- Rape plant response rating (0 to 100 scale) (rape): 95
- Plant response rating, Blackgrass (blackgrass; Rate 125 g/ha): 20
- Blackgrass plant response rating (blackgrass): 0
- Plant response rating, Comnion poppy (common poppy; Rate 125 g/ha, 0 to 100 scale): 20
- Common poppy plant response rating (common poppy): 40
- Plant response rating, Barley (winter) (winter barley; Rate 125 g/ha): 0
- Barley (winter) plant response rating (winter barley): 0
- Plant response rating, Jointed goatgra (jointed goatgrass; [3]): 65
- Jointed goatgra plant response rating (0 to 100 scale) (jointed goatgrass): 80
- Plant response rating I. morningglory (ivyleaf morningglory; Rate 140 g/ha): 0
- Plant response rating I. morningglory (ivyleaf morningglory; Rate 280 g/ha): 0
- Plant response rating I. morningglory (ivyleaf morningglory; Rate 560 g/ha): 0
- Plant response rating I. morningglory (ivyleaf morningglory; Rate 1120 g/ha): 0
- Plant response rating, Purple nutsedge (purple nutsedge; Rate 140 g/ha): 0
- Plant response rating, Purple nutsedge (purple nutsedge; Rate 280 g/ha): 0
- Plant response rating, Purple nutsedge (purple nutsedge; Rate 560 g/ha): 50
- Plant response rating, Purple nutsedge (purple nutsedge; Rate 1120 g/ha): 70
- Plant response rating, Chickweed (chickweed; Rate 125 g/ha): 0
- Chickweed plant response rating (chickweed): 0
- Plant response rating H. beggarticks (hairy beggarticks; Rate 280 g/ha): 10
- Plant response rating H. beggarticks (hairy beggarticks; Rate 1120 g/ha): 80

SMILES: CC(C)N(C(=O)n1oc(=O)n(C2CCCCCC2)c1=O)c1ccc(F)cc1F [Compound 342]
- Plant response rating, C. purslane (common pursiane; [7]): 0
- Plant response rating, C. purslane (common pursiane; [8]): 0
- Plant response rating, C. purslane (common pursiane; [9]): 0
- Plant response rating, C. purslane (common pursiane; [10]): 0
- Plant response rating, C. purslane (common pursiane; Rate 250 g/ha): 0
- Plant response rating, Surinam grass (surinam grass; [7]): 0
- Plant response rating, Surinam grass (surinam grass; [8]): 0
- Surinam grass plant response rating (surinam grass; [9]): 20
- Surinam grass plant response rating (surinam grass; [10]): 30
- Plant response rating, Surinam grass (surinam grass; Rate 250 g/ha): 40
- Plant response rating, Large crabgrass (large crabgrass [2]; [7]): 0
- Plant response rating, Large crabgrass (large crabgrass [2]; [8]): 0
- Plant response rating, Large crabgrass (large crabgrass [2]; [9]): 40
- Plant response rating, Large crabgrass (large crabgrass [2]; [10]): 100
- Plant response rating, Large crabgrass (large crabgrass [2]; Rate 250 g/ha): 100
- Plant response rating, Goosegrass (goosegrass; [7]): 20
- Plant response rating, Goosegrass (goosegrass; [8]): 30
- Plant response rating, Goosegrass (goosegrass; [9]): 90
- Plant response rating, Goosegrass (goosegrass; [10]): 100
- Plant response rating, Goosegrass (goosegrass; Rate 250 g/ha): 100
- Plant response rating, Dallisgrass (dallisgrass; [7]): 0
- Plant response rating, Dallisgrass (dallisgrass; [8]): 0
- Plant response rating, Dallisgrass (dallisgrass; [9]): 0
- Plant response rating, Dallisgrass (dallisgrass; [10]): 90
- Plant response rating, Dallisgrass (dallisgrass; Rate 250 g/ha): 100
- Plant response rating, Green foxtail (Green foxtail; Rate 16 g/ha): 0
- Plant response rating, Green foxtail (Green foxtail; Rate 32 g/ha): 0
